Data: paper PMC11103274 (Journal of the American Chemical Society, 2023)
Where two headings read alike, the source gives them in different places. Each block holds one compound with its values, some of them ahead of it.

Legend:
[1] = target: T1, human serine racemase (hSR) (Homo sapiens, UniProt Q9GZT4); test: 13C/2H-isotopic crosstalk NMR dual function assay; details: for IC50: 13C/2H crosstalk NMR assay
T1 sequence (Q9GZT4 1-340): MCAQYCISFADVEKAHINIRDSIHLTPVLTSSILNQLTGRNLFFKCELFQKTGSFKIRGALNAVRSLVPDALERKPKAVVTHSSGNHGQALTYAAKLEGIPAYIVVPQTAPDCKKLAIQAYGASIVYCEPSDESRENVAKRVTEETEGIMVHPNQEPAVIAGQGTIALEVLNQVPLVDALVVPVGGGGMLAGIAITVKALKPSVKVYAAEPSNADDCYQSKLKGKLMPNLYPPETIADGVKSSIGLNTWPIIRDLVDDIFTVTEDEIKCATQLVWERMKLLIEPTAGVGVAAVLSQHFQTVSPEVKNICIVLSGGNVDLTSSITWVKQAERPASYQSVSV

[2] = target: T1, human serine racemase (hSR); details: cited from earlier work
[3] = target: T2, human serine racemase (hSR), allosteric ATP site (Homo sapiens, UniProt Q9GZT4); test: steady state competition against ATP, L-Ser held constant at 30 mM; type: biochemical; details: L-Ser constant at 30 mM
T2 sequence (Q9GZT4 1-340): T1 sequence (Q9GZT4 1-340)

[4] = target: T1, human serine racemase (hSR); test: steady state kinetic analysis, coupled UV-vis assay for β-elimination; type: biochemical
[5] = solubility under assay conditions; type: physicochemical
[6] = read-out: IC50(H/D-exchange), L-Ser 30 mM
[7] = read-out: IC50(β-elimination), positive controls

IC50 [1, 6]: 89 ± 35 µM
IC50 [1, 7]: 39000 ± 2000 µM
Compound: O=C(O)CP(=O)(O)O [compound 1, phosphonoacetate, reference compound]

Compound: CCOP(=O)(CC(=O)O)OCC [compound 2, diethyl phosphonate acetate, reference compound]
IC50 ([1]; read-out: IC50(H/D-exchange), positive controls): 95000 ± 10000 µM
IC50 [1, 7]: 96000 ± 19000 µM

Compound: NC(=O)C1=CN([C@@H]2O[C@H](COP(=O)(O)O)[C@@H](O)[C@H]2O)C=CC1 [NMNH, nicotinamide mononucleotide, reduced form]
mode of inhibition with respect to substrate ([2]; ref Mozzarelli and co-workers): non-competitive inhibition

Compound: N[C@H](C(=O)O)[C@@H](O)C(=O)O [L-EHA, L-erythro-β-hydroxy-aspartate]
Ki ([2]; literature, most potent inhibitors yet identified): ~30 µM

Compound: O=C(O)CC(=O)O [malonate]
Ki ([2]; ref 33a): 20 to 120 µM

Compound: O=C(O)C(Cl)(Cl)C(=O)O [dichloromalonate]
Ki [2]: ~20 µM

Ki ([4]; read-out: Ki (L-SOS elim), β-elimination of L-serine-O-sulfate): 12 ± 4 µM
Ki ([4]; read-out: Ki (L-Ser elim), β-elimination of L-Ser): 44 ± 6 µM
mode of inhibition vs. substrate ([4]; steady state kinetics): non-competitive inhibition
inhibition in the NMR screen ([1]; 1 mM): complete inhibition
Hill coefficient of dose-response curve ([1]; NMR assay): ~ 2
IC50 [1, 6]: 45 ± 6 µM
IC50 ([1]; read-out: IC50(β-elimination), L-Ser 30 mM): 36 ± 10 µM
relative solubility [5]: more soluble than the N-alkyl congeners
Compound: N-H indolo-chroman-2,4-dione [compound 10]
mode of inhibition vs. ATP [3]: competing with ATP for the allosteric site
